Laboratory results published in PMC9960274, “Peptidic Inhibitors and a Fluorescent Probe for the Selective Inhibition and Labelling of Factor XIIIa Transglutaminase” (Molecules, 2023).
Non-standard residues stand in square brackets, D forms with d. Residues, ends and D or L forms follow the SMILES beside them. ξ: configuration not given here. *: point of attachment. ONp = O=[N+]([O-])c1ccc(O*)cc1; ξE = NC(CCC(=O)O)C(=O)O; Cbz = O=C(OCc1ccccc1)*

Legend:
Human TG2 = biological target: T1, Human TG2 (Homo sapiens, UniProt P21980); parameters: method as in PMID 35158154, PMID 28858494; details: read-out: KM of substrate for TG2; cited from earlier work
T1 construct: made in house
T1 sequence (P21980 1-687): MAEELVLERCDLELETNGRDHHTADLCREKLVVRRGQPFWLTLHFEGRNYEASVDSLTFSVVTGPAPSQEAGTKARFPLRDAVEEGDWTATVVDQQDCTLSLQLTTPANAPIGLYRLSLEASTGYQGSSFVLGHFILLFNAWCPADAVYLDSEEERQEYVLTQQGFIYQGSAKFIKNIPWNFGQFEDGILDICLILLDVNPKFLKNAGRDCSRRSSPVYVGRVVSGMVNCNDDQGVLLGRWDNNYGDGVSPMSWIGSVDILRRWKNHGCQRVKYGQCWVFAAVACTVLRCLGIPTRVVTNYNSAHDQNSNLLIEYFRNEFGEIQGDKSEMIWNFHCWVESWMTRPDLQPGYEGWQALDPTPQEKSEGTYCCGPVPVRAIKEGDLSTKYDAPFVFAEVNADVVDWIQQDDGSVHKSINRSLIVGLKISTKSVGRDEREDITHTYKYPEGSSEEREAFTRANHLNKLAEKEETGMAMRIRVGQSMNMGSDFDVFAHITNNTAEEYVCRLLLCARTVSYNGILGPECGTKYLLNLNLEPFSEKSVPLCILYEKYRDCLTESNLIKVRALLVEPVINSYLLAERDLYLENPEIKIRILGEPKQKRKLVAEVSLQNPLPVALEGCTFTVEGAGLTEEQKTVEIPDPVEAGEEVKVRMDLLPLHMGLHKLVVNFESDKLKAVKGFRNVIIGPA

[1] = biological target: T2, Thrombin-activated human FXIIIa (Homo sapiens, UniProt P00488); test: Fluorescence-quenched A101 isopeptidase assay of FXIIIa inhibition kinetics; format: biochemical; details: 0, 100, 200, 320 µM
T2 construct: purchased Zedira GmbH T070
T2 sequence (P00488 39-732 limits assumed): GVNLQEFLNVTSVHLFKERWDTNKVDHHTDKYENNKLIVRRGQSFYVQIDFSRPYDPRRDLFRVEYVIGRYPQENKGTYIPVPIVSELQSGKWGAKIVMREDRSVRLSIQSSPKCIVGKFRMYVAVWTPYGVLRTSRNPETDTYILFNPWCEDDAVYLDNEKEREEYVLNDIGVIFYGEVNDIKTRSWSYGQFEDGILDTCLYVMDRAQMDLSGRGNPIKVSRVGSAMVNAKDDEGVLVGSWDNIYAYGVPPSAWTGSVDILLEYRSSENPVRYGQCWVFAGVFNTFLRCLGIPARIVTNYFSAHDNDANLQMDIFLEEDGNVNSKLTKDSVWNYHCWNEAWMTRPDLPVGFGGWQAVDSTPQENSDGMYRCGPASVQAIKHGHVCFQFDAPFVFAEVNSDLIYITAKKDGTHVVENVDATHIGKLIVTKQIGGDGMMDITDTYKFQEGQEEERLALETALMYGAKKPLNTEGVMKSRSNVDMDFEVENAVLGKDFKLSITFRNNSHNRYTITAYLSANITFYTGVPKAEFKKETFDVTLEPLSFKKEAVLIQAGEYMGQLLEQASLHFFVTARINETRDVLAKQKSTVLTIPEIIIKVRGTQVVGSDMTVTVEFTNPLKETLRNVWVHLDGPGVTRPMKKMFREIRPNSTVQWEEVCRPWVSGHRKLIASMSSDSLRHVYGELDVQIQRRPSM

O=C(O)CNC(=O)C(CCC(=O)Oc1ccc([N+](=O)[O-])cc1)NC(=O)OCc1ccccc1 (centres unmarked) [AL5, Cbz-Glu(ɣ-p-nitrophenyl ester)Gly-OH] (Cbz-[ξE](ONp)-Gly-OH)
Km (Human TG2): 10 µM

CN(C)c1cccc2c(S(N)(=O)=O)cccc12 [Dansyl amide]
traces in FXIIIa A101 inhibition assay (fluorescence interference control) [1]: nearly identical traces as those obtained using the dansylated inhibitor library
